Results reported in patent publication US12679848B2, “Plasma kallikrein inhibitors” (Merck Sharp & Dohme LLC, priority 2020, dated 2026).
pIC50: −log10 of the molar value.

Legend:
[1] = target: human factor XIa (Homo sapiens, UniProt P03951); experiment: Factor XIa Assay; type: biochemical; conditions: human factor XIa 0.04 nM, substrate GPR-AFC, 30 min pre-incubation, 25° C., pH 7.4; read-out: FXIa IC50
Protocol: (§1) The effectiveness of a compound of the present invention as an inhibitor of Coagulation factor XIa can be determined using a relevant purified serine protease, and an appropriate synthetic substrate. The rate of hydrolysis of the chromogenic or fluorogenic substrate by the relevant serine protease was measured both in the absence and presence of compounds of the present invention. Assays were conducted at rt or at 37° C. […] A decrease in the rate of fluorescence change in the presence of inhibitor is indicative of enzyme inhibition. Such methods are known to one skilled in the art. The results of this assay are expressed as the half-maximal inhibitory concentrations (IC50), or the inhibitory constant, Ki.
Compounds were pre-incubated for 30 min at 25° C. with human (0.04 nM) factor XIa in 50 mM HEPES buffer with 150 mM sodium chloride, 5 mM calcium chloride, 0.1% PEG 8000, pH 7.4. factor XIa enzymatic activity was determined by addition of the substrate glycine-proline-arginine-7-amido-4-trifluoromethylcoumarin (GPR-AFC) and measurement of the fluorescence at 400/505 nm after a 60 min incubation at 25° C. The % inhibition for each data point was calculated from the data and analyzed using the log (inhibitor) vs. response four parameters equation to determine the half-maximal inhibitory concentrations (IC50). The IC50 were converted to equilibrium inhibitory constants (Ki) using the Cheng-Prusoff equation.

[2] = target: T1, Human plasma kallikrein (Homo sapiens, UniProt P03952); experiment: Plasma Kallikrein Assay; type: biochemical; conditions: purified Human plasma kallikrein 0.5 nM, substrate Acetyl-K-P-R-AFC, HEPES pH 7.4; read-out: PKal IC50
T1 construct: yields a heavy chain (371 amino acids) and a light chain (248 amino acids); The active site of plasma kallikrein is contained in the light chain; purchased Enzyme Research Laboratories
Protocol: as §1, with “plasma kallikrein” for “Coagulation factor XIa”
Plasma kallikrein determinations were made in 50 mM HEPES buffer at pH 7.4 containing 150 mM NaCl, 5 mM CaCl2), and 0.1% PEG 8000 (polyethylene glycol; Fisher Scientific). Determinations were made using purified Human plasma kallikrein at a final concentration of 0.5 nM (Enzyme Research Laboratories) and the synthetic substrate, Acetyl-K—P—R-AFC (Sigma #C6608) at a concentration of […].
Times required to achieve equilibration between enzyme and inhibitor were determined in control experiments. […] IC50 was determined by inflection point from a four parameter logistic curve fit. Ki was calculated using the Cheng Prusoff equation, Ki=IC50/[…](1+([S]/Km)).

Sequence of human factor XIa (P03951 388-625 limits assumed): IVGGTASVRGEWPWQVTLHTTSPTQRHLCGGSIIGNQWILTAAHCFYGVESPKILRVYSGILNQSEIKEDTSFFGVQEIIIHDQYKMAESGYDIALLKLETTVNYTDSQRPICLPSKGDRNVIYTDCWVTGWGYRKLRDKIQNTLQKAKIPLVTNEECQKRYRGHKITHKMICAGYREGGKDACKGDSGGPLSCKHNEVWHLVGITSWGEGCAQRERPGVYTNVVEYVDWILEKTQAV
Sequence of human factor XIa (P03951 19-387 partner limits assumed): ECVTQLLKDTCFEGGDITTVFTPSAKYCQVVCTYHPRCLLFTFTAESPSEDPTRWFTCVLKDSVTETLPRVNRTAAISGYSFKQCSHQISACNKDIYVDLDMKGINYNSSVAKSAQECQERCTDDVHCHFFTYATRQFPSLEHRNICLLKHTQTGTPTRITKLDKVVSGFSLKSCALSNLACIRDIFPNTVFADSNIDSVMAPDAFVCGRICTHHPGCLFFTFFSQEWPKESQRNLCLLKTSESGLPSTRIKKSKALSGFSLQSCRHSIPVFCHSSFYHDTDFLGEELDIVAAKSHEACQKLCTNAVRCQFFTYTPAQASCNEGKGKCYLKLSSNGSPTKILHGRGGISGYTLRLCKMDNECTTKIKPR
T1 sequence (P03952 391-638 limits assumed): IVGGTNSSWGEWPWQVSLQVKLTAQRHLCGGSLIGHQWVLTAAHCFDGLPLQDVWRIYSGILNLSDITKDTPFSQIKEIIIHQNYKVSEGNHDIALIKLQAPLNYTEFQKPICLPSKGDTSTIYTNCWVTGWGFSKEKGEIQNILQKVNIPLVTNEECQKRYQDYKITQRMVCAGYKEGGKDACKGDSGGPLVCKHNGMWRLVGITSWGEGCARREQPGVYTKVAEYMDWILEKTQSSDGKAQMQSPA
T1 sequence (P03952 20-390 partner limits assumed): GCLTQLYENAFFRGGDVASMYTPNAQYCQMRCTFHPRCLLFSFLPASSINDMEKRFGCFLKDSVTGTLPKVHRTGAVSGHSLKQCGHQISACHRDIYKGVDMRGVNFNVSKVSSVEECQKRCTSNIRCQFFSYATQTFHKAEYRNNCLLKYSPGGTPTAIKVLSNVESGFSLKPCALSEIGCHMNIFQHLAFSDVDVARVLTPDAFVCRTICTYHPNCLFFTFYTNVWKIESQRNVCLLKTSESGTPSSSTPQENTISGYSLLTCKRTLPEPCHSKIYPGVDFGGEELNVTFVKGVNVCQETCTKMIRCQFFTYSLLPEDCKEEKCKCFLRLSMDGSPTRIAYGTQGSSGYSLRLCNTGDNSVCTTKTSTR

SMILES	pIC50 [1]	pIC50 [2]
Nc1c(C(=O)N2CCC[C@@]3(C2)OC(=O)Nc2ccc(Cl)c(F)c23)cnn1C(C(F)(F)F)C1(F)CC1 (single isomer, unassigned) [Example 115, (R)-1'-(5-Amino-1-((S or R)-2,2,2-trifluoro-1-(1-fluorocyclopropyl)ethyl)-1H-pyrazole-4-carbonyl)-6-chloro-5-fluorospiro[benzo[d][1,3]oxazine-4,3'-piperidin]-2(1H)-one]	7.38	9.22
Nc1c(C(=O)N2CCC[C@@]3(C2)OC(=O)Nc2ccc(Cl)c(F)c23)cnn1Cc1cnccn1 [Example 54, (R)-1'-(5-Amino-1-(pyrazin-2-ylmethyl)-1H-pyrazole-4-carbonyl)-6-chloro-5-fluorospiro[benzo[d][1,3]oxazine-4,3'-piperidin]-2(1H)-one]	6.22	8.47
Nc1c(C(=O)N2CCC[C@@]3(C2)OC(=O)Nc2ccc(Cl)c(F)c23)cnn1C(C1CC1)C(F)(F)F (single isomer, unassigned) [Example 125, (R)-1'-(5-Amino-1-((S or R)-1-cyclopropyl-2,2,2-trifluoroethyl)-1H-pyrazole-4-carbonyl)-6-chloro-5-fluorospiro[benzo[d][1,3]oxazine-4,3'-piperidin]-2(1H)-one]	6.81	8.35
Nc1c(C(=O)N2CCC[C@@]3(C2)OC(=O)Nc2ccc(Cl)c(F)c23)cnn1-c1ccc2cn[nH]c2c1 [Example 59, (R)-1'-(5-Amino-1-(1H-indazol-6-yl)-1H-pyrazole-4-carbonyl)-6-chloro-5-fluorospiro[benzo[d][1,3]oxazine-4,3'-piperidin]-2(1H)-one]	5.94	7.59
Cc1ccc(-n2ncc(C(=O)N3CCC[C@@]4(C3)OC(=O)Nc3ccc(Cl)c(F)c34)c2N)c(F)c1 [Example 66, (R)-1'-(5-Amino-1-(2-fluoro-4-methylpheny1)-1H-pyrazole-4-carbonyl)-6-chloro-5-fluorospiro[benzo[d][1,3]oxazine-4,3'-piperidin]-2(1H)-one]	6.62	7.41
CCC(c1ccccc1)n1ncc(C(=O)N2CCC[C@@]3(C2)OC(=O)Nc2ccc(Cl)c(F)c23)c1N (single isomer, unassigned) [Example 117, (R)-1'-(5-Amino-1-((R or S)-1-phenylpropyl)-1H-pyrazole-4-carbonyl)-6-chloro-5-fluorospiro[benzo[d][1,3]oxazine-4,3'-piperidin]-2(1H)-one]	7.52	9.05
Nc1c(C(=O)N2CCC[C@@]3(C2)OC(=O)Nc2ccc(Cl)c(F)c23)cnn1CC1CCCCC1 [Example 36, (R)-1'-(5-Amino-1-(cyclohexylmethyl)-1H-pyrazole-4-carbonyl)-6-chloro-5-fluorospiro[benzo[d][1,3]oxazine-4,3'-piperidin]-2(1H)-one]	6.85	8.70
CCC(C1CCOCC1)n1ncc(C(=O)N2CCC[C@@]3(C2)OC(=O)Nc2ccc(Cl)c(F)c23)c1N (single isomer, unassigned) [Example 113, (R)-1'-(5-Amino-1-((S or R)-1-(tetrahydro-2H-pyran-4-yl)propyl)-1H-pyrazole-4-carbonyl)-6-chloro-5-fluorospiro[benzo[d][1,3]oxazine-4,3'-piperidin]-2(1H)-one]	8.70	9.22
COC(=O)c1ccc(-n2ncc(C(=O)N3CCC[C@@]4(C3)OC(=O)Nc3ccc(Cl)c(F)c34)c2N)c(OC)c1 [Example 92, Methyl (R)-4-(5-amino-4-(6-chloro-5-fluoro-2-oxo-1,2-dihydrospiro[benzo[d][1,3]oxazine-4,3'-piperidine]-l'-carbonyl)-1H-pyrazol-1-yl)-3-methoxybenzoate]	5.77	7.88
Nc1c(C(=O)N2CCC[C@@]3(C2)OC(=O)Nc2ccc(Cl)c(F)c23)cnn1-c1cc(F)ccc1OC(F)F [Example 106, (R)-1'-(5-Amino-1-(2-(difluoromethoxy)-5-fluorophenyl)-1H-pyrazole-4-carbonyl)-6-chloro-5-fluorospiro[benzo[d][1,3]oxazine-4,3'-piperidin]-2(1H)-one]	5.97	7.46
Nc1c(C(=O)N2CCC[C@@]3(C2)OC(=O)Nc2ccc(Cl)c(F)c23)cnn1-c1ccc(N2CCOC2=O)cc1 [Example 75, (R)-1'-(5-Amino-1-(4-(2-oxooxazolidin-3-yl)phenyl)-1H-pyrazole-4-carbonyl)-6-chloro-5-fluorospiro[benzo[d][1,3]oxazine-4,3'-piperidin]-2(1H)-one]	5.33	7.29

Other lines, results leading:

pIC50 [1]	pIC50 [2]	SMILES
8.10	8.80	CCC(n1ncc(C(=O)N2CC(C)(C)C[C@@]3(C2)OC(=O)Nc2ccc(Cl)c(F)c23)c1N)C(F)(F)F (single isomer, unassigned) [Example 130, (R)-1'-(5-Amino-1-((R or S)-1,1,1-trifluorobutan-2-y1)-1H-pyrazole-4-carbonyl)-6-chloro-5-fluoro-5',5'-dimethylspiro[benzo[d][1,3]oxazine-4,3'-piperidin]-2(1H)-one]
6.49	7.94	CCc1ccccc1-n1ncc(C(=O)N2CCC[C@@]3(C2)OC(=O)Nc2ccc(Cl)c(F)c23)c1N [Example 80, (R)-1'-(5-Amino-1-(2-ethylphenyl)-1H-pyrazole-4-carbonyl)-6-chloro-5-fluorospiro[benzo[d][1,3]oxazine-4,3'-piperidin]-2(1H)-one]
6.68	8.57	CC1(C)CN(C(=O)c2cnn(CC(F)(F)F)c2N)C[C@]2(C1)OC(=O)Nc1ccc(Cl)c(F)c12 [Example 2, (R)-1′-(5-Amino-1-(2,2,2-trifluoroethyl)-1H-pyrazole-4-carbonyl)-6-chloro-5-fluoro-5′,5′-dimethylspiro[benzo[d][1,3]oxazine-4,3′-piperidin]-2(1H)-one]
6.05	8.23	Nc1c(C(=O)N2CCC[C@@]3(C2)OC(=O)Nc2ccc(Cl)c(F)c23)cnn1CCOCC(F)(F)F [Example 20, (R)-1'-(5-Amino-1-(2-(2,2,2-trifluoroethoxy)ethyl)-1H-pyrazole-4-carbonyl)-6-chloro-5-fluorospiro[benzo[d][1,3]oxazine-4,3'-piperidin]-2(1H)-one]
6.35	8.62	Nc1c(C(=O)N2CCC[C@@]3(C2)OC(=O)Nc2ccc(Cl)c(F)c23)cnn1C1Cc2ccccc2C1 [Example 38, (R)-1'-(5-Amino-1-(2,3-dihydro-1H-inden-2-yl)-1H-pyrazole-4-carbonyl)-6-chloro-5-fluorospiro[benzo[d][1,3]oxazine-4,3'-piperidin]-2(1H)-one]
6.29	7.88	Nc1c(C(=O)N2CCC[C@@]3(C2)OC(=O)Nc2ccc(Cl)c(F)c23)cnn1CC(F)(F)C(F)(F)F [Example 48, (R)-1'-(5-Amino-1-(2,2,3,3,3-pentafluoropropyl)-1H-pyrazole-4-carbonyl)-6-chloro-5-fluorospiro[benzo[d][1,3]oxazine-4,3'-piperidin]-2(1H)-one]
5.55	7.74	Cn1c(-c2ccccc2)nnc1-n1ncc(C(=O)N2CCC[C@@]3(C2)OC(=O)Nc2ccc(Cl)c(F)c23)c1N [Example 30, (R)-1'-(5-Amino-1-(4-methyl-5-phenyl-4H-1,2,4-triazol-3-y1)-1H-pyrazole-4-carbonyl)-6-chloro-5-fluorospiro[benzo[d][1,3]oxazine-4,3'-piperidin]-2(1H)-one]
6.24	8.14	Nc1c(C(=O)N2CCC[C@@]3(C2)OC(=O)Nc2ccc(Cl)c(F)c23)cnn1CC1CC1 [Example 13, (R)-1'-(5-Amino-1-(cyclopropylmethyl)-1H-pyrazole-4-carbonyl)-6-chloro-5-fluorospiro[benzo[d][1,3]oxazine-4,3'-piperidin]-2(1H)-one]
6.07	7.64	Nc1c(C(=O)N2CCC[C@@]3(C2)OC(=O)Nc2ccc(Cl)c(F)c23)cnn1-c1ncccc1F [Example 62, (R)-1'-(5-Amino-1-(3-fluoropyridin-2-y1)-1H-pyrazole-4-carbonyl)-6-chloro-5-fluorospiro[benzo[d][1,3]oxazine-4,3'-piperidin]-2(1H)-one]
